Measurements: patent publication US5444056A, “Aminoalkoxyphenyl derivatives, process for their preparation and compositions containing them” (Sanofi, priority 1989, dated 1995)
Where a name gives a salt, the structure may show the parent alone.

How the values were obtained:
[1] = test system: acceleration of the heart rate induced by isoprenaline (anti-β effect); test: Anti-β effect: reduction of isoprenaline-induced acceleration of the heart rate in anesthetized atropinized dog; type: in vivo; parameters: key to Anti-β effect: +: for a reduction <50%; ++: for a reduction ≥50%; +++: for an almost complete reduction
Experimental: The aim of this test is to determine the capacity of the compounds of the invention to reduce the increase in blood pressure induced by epinephrine (anti-αeffect) and the acceleration of the heart rate induced by isoprenaline (anti-βeffect) in the dog previously anesthetized with pentobarbital and atropinized.
(§1) First, are determined for each dog the dose of epinephrine (between 3 and 10 μg/kg) which causes a reproducible increase in arterial blood pressure of about 133.10^2 Pa and the dose of isoprenaline (1 to 2 μg/kg) which causes a reproducible increase in the heart rate of about 70 beats/minute. The doses of epinephrine and isoprenaline thus determined are injected alternatively every ten minutes and after the two consecutive reference responses have been obtained, a quantity of the test compound is administered by the intravenous route.
The percentage reduction of the acceleration of the heart rate caused by the test compound compared with the reference tachycardia previously measured (about 70 beats) is recorded.
In both cases, the results of the reduction in arterial pressure and heart rate are expressed as follows: […]

[2] = test system: contractile response to potassium-induced depolarization on isolated rat aorta; test: Calcium inhibitory properties: antagonism of contractile response to potassium-induced depolarization on isolated rat aorta; parameters: species or system rat (male Wistar); settings: percent of maximal contraction before incubation, 60 min
Excerpt: It is well established that the depolarization of a smooth muscle membrane by potassium makes the latter permeable to extracellular calcium and induces muscle contraction. Consequently, the measurement of inhibition of the contractile response to depolarization by potassium or the measurement of relaxation of the tonic contraction on potassium depolarization can provide an evaluation of the potency of a compound as an inhibitor of the membrane permeability to Ca^++ ions. The technique used is the following: The aorta is removed from male Wistar rats weighing about 300 g and cut into strips approximately 40 mm long and 3 mm wide. These fragments are placed in a 25 ml isolated organ bath containing modified Krebs-bicarbonate solution (112 mM NaCL; 5 mM KCl; 25 mM NaHCO3; 1 mM KH2 PO4; 1.2 mM MgSO4; 2.5 mM CaCl2; 11.5 mM glucose, made up to 1000 ml with distilled water) maintained at 37° C. and through which a stream of carbon dioxide is passed. The preparation is connected to a force microsensor and the contractile response is recorded after amplification on a recorder. A tension of 2g is applied to the preparation. This latter is maintained in the modified Krebs-bicarbonate solution for 60 minutes, and then contractions are induced by replacing the Krebsbi-carbonate solution by a Krebs-potassium solution (17 mM NaCl; 100 mM KCl; 25 mM NaHCO3; 1 mM KH2 PO4; 1.2 mM MgSO4; 2.5 mM CaCl2; 11.5 mM glucose; made up to 1000 ml with distilled water). When the contractile response of the preparation has become reproducible, a given amount of the compound of the invention is introduced into the bath. Sixty minutes later a new spasm is induced by potassium depolarization. The results obtained on the aorta under investigation are then expressed in percent of the maximal contractional effect before incubation with the test substance. As examples, the following results were obtained, the compounds of formula (1) being in the form of the free base, the hydrochloride, oxalate or fumarate.

[3] = test system: increase in blood pressure induced by epinephrine (anti-α effect); test: Anti-α effect: reduction of epinephrine-induced increase in blood pressure in anesthetized atropinized dog; type: in vivo; parameters: key: +: for a reduction <50%; ++: for a reduction ≥50%; +++: for an almost complete reduction
Experimental: as §1, with “The aim of this test is to determine the capacity of the compounds of the invention to reduce the increase in blood pressure induced by epinephrine (anti-αeffect) and the acceleration of the heart rate induced by isoprenaline (anti-βeffect) in the dog previously anesthetized with pentobarbital and atropinized. First,” for “First,”, “route. The percentage reduction of the hypertension caused by the test compound in comparison with the reference hypertension previously obtained (about 100 mm Hg) is recorded. In both cases, the results of the reduction in arterial pressure and heart rate are expressed as follows: […]” for “route.”

SMILES: CCCCc1oc2ccc(Br)cc2c1S(=O)(=O)c1ccc(OCCCN(C)CCc2ccc(OC)c(OC)c2)cc1 [Ex. 8, 5-bromo 2-n-butyl 3-{4[3-(N-methyl N-3,4-dimethoxy-β-phenethylamino)propoxy]benzenesulfonyl}benzofuran hydrogen oxalate]
- Anti-β effect ([1]; intravenous, 1,5 mg/kg): +++
- % maximal contractional effect ([2]; 10^-6 M, 1 µM): 61,5%
- % maximal contractional effect ([2]; 10^-7 M, 0.1 µM): 79,4%
- Anti-α effect ([3]; intravenous, 1,5 mg/kg): +++

SMILES: COc1cc(CCN(C)CCCOc2ccc(S(=O)(=O)c3c(C(C)C)cn4cccc(C)c34)cc2)cc(OC)c1 [Ex. 76, 1-{4-[3-(N-methyl N-3,5-dimethoxy-β-phenethylamino)propoxy]benzenesulfonyl} 2-isopropyl 8-methyl indolizine]
- Anti-β effect ([1]; intravenous, 0,013 mg/kg): +++
- % maximal contractional effect ([2]; 10^-8 M, 0.01 µM): 12,7%
- % maximal contractional effect ([2]; 10^-9 M, 0.001 µM): 41,8%
- % maximal contractional effect ([2]; 10^-10 M, 0.0001 µM): 64,1%
- Anti-α effect ([3]; intravenous, 0,013 mg/kg): +++

SMILES: COc1ccc(CCN(C)CCCOc2ccc(S(=O)(=O)c3c(C(C)C)n(C)c4cccc(C)c34)cc2)cc1OC [Ex. 65, 3-{4-[3-(N-methyl N-3,4-dimethoxy-β-phenethylamino)propoxy]benzenesulfonyl} 2-isopropyl 1,4-dimethyl indole hydrogen oxalate]
- Anti-β effect ([1]; intravenous, 0,1 mg/kg): +++
- % maximal contractional effect ([2]; 10^-7 M, 0.1 µM): 14,3%
- % maximal contractional effect ([2]; 10^-8 M, 0.01 µM): 29,9%
- % maximal contractional effect ([2]; 10^-9 M, 0.001 µM): 76,1%
- % maximal contractional effect ([2]; 10^-10 M, 0.0001 µM): 83,5%
- Anti-α effect ([3]; intravenous, 0,1 mg/kg): +++

SMILES: COc1ccc2[nH]c(S(=O)(=O)c3ccc(OCCCN(C)CCc4ccc(OC)c(OC)c4)cc3)c(C(C)C)c2c1 [Ex. 62, 2-{4-[3-(N-methyl N-3,4-dimethoxy-β-phenethylamino)propoxy]benzenesulfonyl} 3-isopropyl 5-methoxy indole hydrogen oxalate]
- inhibition in vivo at 1 mg/kg ([1]; Canis lupus familiaris, intravenous, 1 mg/kg): ≥ 50%
- % maximal contractional effect ([2]; 10^-7 M, 0.1 µM): 37,1%
- % maximal contractional effect ([2]; 10^-8 M, 0.01 µM): 48,7%
- % maximal contractional effect ([2]; 10^-9 M, 0.001 µM): 93,7%
- % maximal contractional effect ([2]; 10^-10 M, 0.0001 µM): 90,3%
- Anti-α effect ([3]; intravenous, 1 mg/kg): +++

SMILES: CCCCN(CCCC)CCCOc1ccc(S(=O)(=O)c2c(C(C)C)n(C)c3cccc(C)c23)cc1.O=C(O)C(=O)O [Ex. 66, 3-{4-[3-(di-n-butylamino)propoxy]benzenesulfonyl} 2-isopropyl 1,4-dimethyl indole hydrogen oxalate]
- Anti-β effect ([1]; intravenous, 0,05 mg/kg): +++
- % maximal contractional effect ([2]; 10^-7 M, 0.1 µM): 7,1%
- % maximal contractional effect ([2]; 10^-8 M, 0.01 µM): 37,1%
- % maximal contractional effect ([2]; 10^-9 M, 0.001 µM): 83,1%
- Anti-α effect ([3]; intravenous, 0,05 mg/kg): +++
